Assay results as given in patent US20250255847A1, “[…]s: Novel Drugs for Triple Negative Breast Cancer” (SIMMARON RSEARCH INC, priority 2024, published 2025).

Experiments:
TM00096 human TNBC tumor = assay: Tumor growth in patient-derived xenograft (PDX) mouse model of TNBC; assay type: in vivo; conditions: for tumor growth by infrared 2DG image analysis: 2 mg/Kg Bwt i.p., end of 4th week; for final tumor volume (mean±SD): after 4 weeks (2 weeks dosing 2 mg/Kg Bwt i.p. alternate days + 2 weeks follow-up), vehicle 949.15±769.15; for initial tumor volume (mean±SD): day 0, 2 mg/Kg Bwt i.p. every alternate day for two weeks
Protocol: FIG. 12 illustrates an embodiment of the present invention and illustrates SIM-1 and SIM-2 arrest the growth of human TNBC tumor in patient-derived xenograft mouse model. TM00096 tumor (origin of invasive ductal carcinoma isolated from a person) was seeded in the flank of 6-week-old female SCID mice by Jackson Laboratory and then shipped to our research facility. Once the tumor reached ˜4 mm in size (˜30 mm^3 in volume), n=6 mice/group were treated by vehicle (5% DMSO), SIM-1 and SIM-2 (2 mg/Kg Bwt mixed with 5% DMSO) via i.p. for 2 weeks in every alternate day. The tumor size was monitored accordingly during the treatment and two more weeks after the last dose to evaluate the recurrence. After 4 weeks, Mice received IRDye 800-tagged 2DG (2-deoxy glucose) probe via tail vein and then imaged in infrared scanner. […] Red spots enclosed in a squares are tumor tissue. Other red spots are non-specific organs with high metabolic activity. (B) Tumor size was measured every alternate day for 4 weeks by a digital caliper and then the volume was calculated using the formula 0.5*Length*Width^2. […] (D) Body weight was recorded during the course of the study to monitor the adverse metabolic outcome due to the drug administration. (E) The heart rate was monitored at 0-, 7-, 14-, and 28-days post SIM-1 and SIM-2 treatments by MouseStat Jr console (Kent Scientific) as per the manufacturer's instruction. (F) At the end of the study, the gross motor performance was recorded for n=6 (i) vehicle, (ii) SIM-1-, and (iii) SIM-2-treated mice. […] Gross movement parameters including (G) the total distance traveled, and (H) the average speed were monitored and plotted by scatter histograms (n=6/group; not significant as shown by one-way ANOVA).
Acquisition, housing, and treatment of PDX mice. Grade 3 invasive ductal carcinoma tumor fragments were harvested from a patient, genotyped for ER-, PR-, and Her2low, and were engrafted in the flank region of 6-to-7-week-old female NOD.Cg-Prkdcscid Il2rgtm1Wjl/SzJ mouse. These tumor-bearing mice were commercially purchased from Jackson Laboratories (Cat #TM00096). Since these mice are severely immunocompromised, special housing was required in a barrier room with restricted air flow and sterile foods. All animal studies were performed under an Institutional Animal Care and Use Committee-approved protocol (Study ID #). […] For the treatment, 2 mg/Kg bwt doses of both SIM-1 and SIM-2 were dissolved in 5% DMSO and then administered intraperitoneally every alternate day for two weeks and followed up for additional two weeks. To ensure safety and toxicity, vital health parameters such as body weight, heart rate, and body temperature were recorded every alternate day for one month. Tumor growth was assessed every alternate day for one month by a digital caliper. Tumor volume was estimated by the formula 0.5× (length×width2). The treatment started once the tumor reached 4 mm in size with an approximate volume of ˜30 mm^3. Mice received drugs for two weeks and left untreated for an additional two weeks to monitor the effect of drug withdrawal on the tumor size. On the penultimate day of the study, mice were injected with 100 μL of […] 2DG dye. The next day, mice were euthanized and then imaged in a Li—CoR infrared scanner to measure tumor size. After that, tumor tissues were harvested from the flank, washed in cold PBS, again imaged with a scalebar, and finally preserved in a −80° C. freezer for subsequent analyses such as genetic and immunoassays.
This example provides a representative experiment of the present invention that studies the effects of both SIM-1 and SIM-2 on the regression and growth arrest of tumors in vivo in the PDX mouse model of TNBC. […]

[1] = Health vitals and open-field test in PDX mice; assay type: in vivo, mouse; conditions: end of study, 2 mg/Kg Bwt i.p.
Protocol: FIG. 12 illustrates an embodiment of the present invention and illustrates SIM-1 and SIM-2 arrest the growth of human TNBC tumor in patient-derived xenograft mouse model. TM00096 tumor (origin of invasive ductal carcinoma isolated from a person) was seeded in the flank of 6-week-old female SCID mice by Jackson Laboratory and then shipped to our research facility. Once the tumor reached ˜4 mm in size (˜30 mm^3 in volume), n=6 mice/group were treated by vehicle (5% DMSO), SIM-1 and SIM-2 (2 mg/Kg Bwt mixed with 5% DMSO) via i.p. for 2 weeks in every alternate day. The tumor size was monitored accordingly during the treatment and two more weeks after the last dose to evaluate the recurrence. […] (B) Tumor size was measured every alternate day for 4 weeks by a digital caliper and then the volume was calculated using the formula 0.5*Length*Width^2. […] (D) Body weight was recorded during the course of the study to monitor the adverse metabolic outcome due to the drug administration. (E) The heart rate was monitored at 0-, 7-, 14-, and 28-days post SIM-1 and SIM-2 treatments by MouseStat Jr console (Kent Scientific) as per the manufacturer's instruction. (F) At the end of the study, the gross motor performance was recorded for n=6 (i) vehicle, (ii) SIM-1-, and (iii) SIM-2-treated mice. […]

SMILES | tumor growth by infrared 2DG image analysis (TM00096 human TNBC tumor) | final tumor volume (mean±SD) (TM00096 human TNBC tumor) [mm^3] | initial tumor volume (mean±SD) (TM00096 human TNBC tumor) [mm^3] | open-field test: gross movement, total distance traveled, average speed [1]
O=C(O)CCC(=O)NCc1csc2ccc(Cl)cc12 [SIM-1, 4-[(5-chloro-1-benzothiophen-3-yl)methylamino]-4-oxobutanoic acid] | significantly arrested the growth | 126.69±29.98 | 37.65±15.41 | did not show any adverse outcome
CCOC(=O)c1c(NC(C)=O)sc2c(Cl)c(/C=N/O)ccc12 [SIM-2, ethyl 2-acetamido-7-chloro-6-(hydroxyiminomethyl)-1-benzothiophene-3-carboxylate] | significantly arrested the growth | 134.09±41.77 | 37.43±7.07 | did not show any adverse outcome
